Test system: conscious ferrets
Assay: Gastrointestinal tolerability study: nausea and emesis in conscious ferrets
Format: in vivo, ferret
Details: observed 90 minutes; for % Emesis: oral gavage 30 mg/kg in 2 mL ethanol and 4 mL water, vomiting ferrets / animals dosed; for Nausea Score: oral gavage 30 mg/kg, mean number of nausea behaviors (up to five) per animal
Procedure: Example 3 and three reference compounds were investigated for their ability to produce nausea and emesis in conscious ferrets using the method as described in Drugs, 53(2), 206-234 (1997) and Cancer Treat. Rep., 66(1), 187-189 (1982). Each compound was administered to 6 ferrets by oral gavage at 30 mg/kg in 2 mL of ethanol and 4 mL of water. […] Nausea was preceded by up to five of the following behaviors in the ferret: licking, down, flop, backing, and gag. […] The mean nausea score for a compound is the total number of nausea behaviors divided by the number of animals given the compound. Percent emesis is the total number of vomiting ferrets divided by the number of animals administered the compound.

| Structure (SMILES) | % Emesis [%] | Nausea Score |
| --- | --- | --- |
| CC[C@H]1OC(=O)[C@H](C)[C@@H](O[C@H]2C[C@@](C)(OC)[C@@H](O)[C@H](C)O2)[C@H](C)[C@@H](O[C@@H]2O[C@H](C)C[C@H](N(C)C)[C@H]2O)[C@](C)(OC)C[C@@H](C)C(=O)[C@H](C)[C@@H](O)[C@]1(C)O [Clarithromycin] | 83 | 1.4 |
| CC[C@H]1OC(=O)[C@H](C)[C@@H](O[C@H]2C[C@@](C)(OC)[C@@H](O)[C@H](C)O2)[C@H](C)[C@@H](O[C@@H]2O[C@H](C)C[C@H](N(C)C)[C@H]2O)[C@](C)(O)C[C@@H](C)C(=O)[C@H](C)[C@@H](O)[C@]1(C)O [Erythromycin] | 67 | 1.2 |
| CC[C@H]1OC(=O)[C@H](C)C(=O)[C@H](C)[C@@H](O[C@@H]2O[C@H](C)C[C@H](N(C)C)[C@H]2O)[C@](C)(OC)C[C@@H](C)C(=O)[C@H](C)[C@H]2N(CCCCn3cnc(-c4cccnc4)c3)C(=O)O[C@]12C [Telithromycin] | 50 | 1.8 |

Reference: patent US20060166906A1, “6-O-substituted erythromycin derivatives having improved gastrointestinal tolerance” (priority 2001, published 2006)
